In the assay the target is T1, human CTPS1 (Homo sapiens, UniProt P17812).
T1 construct: FLAG (with GG linker); His8 (with GG linker); purchased Proteros biostructures GmbH
T1 sequence (P17812 1-591): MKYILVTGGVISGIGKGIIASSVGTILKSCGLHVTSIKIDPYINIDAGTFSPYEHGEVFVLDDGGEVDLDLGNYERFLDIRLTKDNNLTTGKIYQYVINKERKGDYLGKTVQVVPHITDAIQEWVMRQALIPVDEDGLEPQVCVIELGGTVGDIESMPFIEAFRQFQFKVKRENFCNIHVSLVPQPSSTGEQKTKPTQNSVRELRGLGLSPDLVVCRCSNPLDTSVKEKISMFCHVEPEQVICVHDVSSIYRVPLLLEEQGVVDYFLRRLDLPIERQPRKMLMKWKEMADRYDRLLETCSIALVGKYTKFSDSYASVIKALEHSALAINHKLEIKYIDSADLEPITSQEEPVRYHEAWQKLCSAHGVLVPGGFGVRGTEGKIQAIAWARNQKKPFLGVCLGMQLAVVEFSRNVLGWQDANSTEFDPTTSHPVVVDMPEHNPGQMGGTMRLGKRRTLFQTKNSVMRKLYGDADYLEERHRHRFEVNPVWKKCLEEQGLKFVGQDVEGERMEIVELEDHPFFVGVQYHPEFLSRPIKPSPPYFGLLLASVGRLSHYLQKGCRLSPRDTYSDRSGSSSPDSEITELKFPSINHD
In words: Human CTPS1 enzyme inhibition, ADP-Glo Max assay. It is filed as biochemical. In short, it runs like this: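 Read-out is ADP-Glo Max luminescence: residual ATP depleted (60 min), then produced ADP converted back to ATP for luciferase detection (60 min). Beforehand, protein and compound were mixed for 10 min at 25 °C in Tris buffer pH 8.0 with MgCl2, Tween-20 and 2 mM L-cysteine. Results expressed as percentage inhibition per concentration.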
On the technique in general: ADP-Glo turns the ADP formed in a reaction into a luminescent signal.

[1] abbreviates: ADP-Glo Max assay, Table 10, read-out: Human CTPS1 Enzyme Inhibition, IC50 grouped by potency range (CTPS1).
Setting [2] is: Table 12, ADP-Glo Max assay, read-out: CTPS1 (Human CTPS1 Enzyme Inhibition data grouped by potency range).

Like-named read-outs stand apart in the source and are kept apart here. Some results are limits rather than exact numbers.

With `CC(C)CS(=O)(=O)Nc1nc(C(C)(C)C(=O)Nc2ccc(-c3cccnc3)cc2)cs1` [T311, 2-methyl-2-(2-((2-methylpropyl)sulfonamido)thiazol-4-yl)-N-(4-(pyridin-3-yl)phenyl)propanamide], the IC50 under setting [1] lay in the range of 1000 to 10000 nM.
Consider `CC(C)S(=O)(=O)Nc1nc(C(C)(C)C(=O)Nc2ccc(-c3cccnc3)cc2)cs1` [T297, 2-methyl-2-(2-((1-methylethyl)sulfonamido)thiazol-4-yl)-N-(4-(pyridin-3-yl)phenyl)propanamide], for which the IC50 under setting [1] lay in the range of 1000 to 10000 nM.
On to `CC(C)(C(=O)Nc1ccc(-c2cncc(N3CCOCC3)n2)cc1)c1csc(NS(=O)(=O)C2CC2)n1` [T53, 2-(2-(cyclopropanesulfonamido)thiazol-4-yl)-2-methyl-N-(4-(6-morpholinopyrazin-2-yl)phenyl)propanamide], for which the IC50 under setting [1] lay in the range of 1000 to 10000 nM.
`CC(C)(C(=O)Nc1ncc(-c2cncc(C#N)c2)cc1F)c1csc(NS(=O)(=O)C2CC2)n1` [T228, N-(5′-cyano-5-fluoro-[3,3′-bipyridin]-6-yl)-2-(2-(cyclopropanesulfonamido)thiazol-4-yl)-2-methylpropanamide]: the IC50 under setting [1] is below 100 nM.
On the same count and under the same terms, the value for `CCOc1cncc(-c2ccc(NC(=O)C(C)(C)c3csc(NS(=O)(=O)CC(C)C)n3)cc2)n1` [T312, N-(4-(6-ethoxypyrazin-2-yl)phenyl)-2-methyl-2-(2-((2-methylpropyl)sulfonamido)thiazol-4-yl)propanamide] was 100 to 1000 nM.
As to `CCOc1cncc(-c2ccc(NC(=O)C3(c4ccnc(NS(=O)(=O)C5CC5)n4)CCC(N4CCN(C)CC4)CC3)nc2)n1` (stereo not drawn) [P311], the IC50 under setting [2] was 100 to 1000 nM.
As to `CN(C)CCOc1cncc(-c2ccc(NC(=O)C(C)(C)c3csc(NS(=O)(=O)C4CC4)n3)cc2)n1` [T279, 2-(2-(cyclopropanesulfonamido)thiazol-4-yl)-N-(4-(6-(2-(dimethylamino)ethoxy)pyrazin-2-yl)phenyl)-2-methylpropanamide], the IC50 under setting [1] was 1000 to 10000 nM.
The same measure, in the same setting: the value for `CC(C)(C(=O)Nc1ccc(-c2ccccc2)cn1)c1csc(NS(=O)(=O)C2CC2)n1` [T63, 2-(2-(cyclopropanesulfonamido)thiazol-4-yl)-2-methyl-N-(5-phenylpyridin-2-yl)propanamide] was 100 to 1000 nM.
The same measure, in the same setting: next, `CC(C)(C(=O)Nc1ccc(-c2cncc(F)c2)cc1)c1csc(NS(=O)(=O)C2CC2)n1` [T253, 2-(2-(cyclopropanesulfonamido)thiazol-4-yl)-N-(4-(5-fluoropyridin-3-yl)phenyl)-2-methylpropanamide]: below 100 nM.
As for `CCOc1cncc(-c2ccc(CNC(C)(C)c3csc(NS(=O)(=O)C4CC4)n3)c(F)c2)n1` [R94, N-(4-(2-((4-(6-Ethoxypyrazin-2-yl)-2-fluorobenzyl)amino)propan-2-yl)thiazol-2-yl)cyclopropanesulfonamide], the “inhibition of CTPS1 enzyme (result in words)” value (ADP-Glo Max assay) is recorded as “activity is retained”. Further, under “Table 14, ADP-Glo Max assay, read-out: CTPS1 (Human CTPS1 Enzyme Inhibition data grouped by potency range)”, the IC50 is below 100 nM.
`CCC(CC)(C(=O)Nc1ccc(-c2cncc(C(F)(F)F)n2)cn1)c1csc(NS(=O)(=O)C2CC2)n1` [T147, 2-(2-(cyclopropanesulfonamido)thiazol-4-yl)-2-ethyl-N-(5-(6-(trifluoromethyl)pyrazin-2-yl)pyridin-2-yl)butanamide]: the IC50 under setting [1] was below 100 nM.
In the case of `CCOc1cnc(-c2ccc(NC(CC)c3ccnc(NS(=O)(=O)C4CC4)n3)cc2)cn1` (stereo not drawn) [P261], under setting [2], the IC50 fell in the range of 100 to 1000 nM.
Regarding `COc1cncc(-c2ccc(NC(=O)C(C)(C)c3csc(NS(=O)(=O)C4CC4)n3)c(F)c2)c1` [T56, 2-(2-(cyclopropanesulfonamido)thiazol-4-yl)-N-(2-fluoro-4-(5-methoxypyridin-3-yl)phenyl)-2-methylpropanamide], the IC50 under setting [1] is below 100 nM.
Consider `CC(C)(O)c1cccc(-c2ccc(NC(=O)C(C)(C)c3csc(NS(=O)(=O)C4CC4)n3)nc2)c1` [T237, 2-(2-(cyclopropanesulfonamido)thiazol-4-yl)-N-(5-(3-(2-hydroxypropan-2-yl)phenyl)pyridin-2-yl)-2-methylpropanamide], for which the IC50 under setting [1] lay in the range of 1000 to 10000 nM.
On the same count and under the same terms, the value for `CC(C)(C(=O)Nc1ccc(-c2cncc(C#N)n2)cn1)c1csc(NS(=O)(=O)C2CC2)n1` [T263, N-(5-(6-cyanopyrazin-2-yl)pyridin-2-yl)-2-(2-(cyclopropanesulfonamido)thiazol-4-yl)-2-methylpropanamide] was 1000 to 10000 nM; that for `Cc1ccc(-c2ccc(NC(=O)C(C)(C)c3csc(NS(=O)(=O)C4CC4)n3)cc2)cn1` [T105, 2-(2-(cyclopropanesulfonamido)thiazol-4-yl)-2-methyl-N-(4-(6-methylpyridin-3-yl)phenyl)propanamide] was 1000 to 10000 nM.
On the same count and under the same terms, next, `COc1ccnc(-c2ccc(NC(=O)C(C)(C)c3csc(NS(=O)(=O)C4CC4)n3)cc2)c1` [T271, 2-(2-(cyclopropanesulfonamido)thiazol-4-yl)-N-(4-(4-methoxypyridin-2-yl)phenyl)-2-methylpropanamide]: 1000 to 10000 nM; `CC(C)(C(=O)Nc1ccc(-c2cncnc2)nc1)c1csc(NS(=O)(=O)C2CC2)n1` [T117, 2-(2-(cyclopropanesulfonamido)thiazol-4-yl)-2-methyl-N-(6-(pyrimidin-5-yl)pyridin-3-yl)propanamide]: 100 to 1000 nM; `COc1ncc(-c2ccc(NC(=O)Cc3csc(NS(=O)(=O)C4CC4)n3)cc2)cn1` [T242, 2-(2-(cyclopropanesulfonamido)thiazol-4-yl)-N-(4-(2-methoxypyrimidin-5-yl)phenyl)acetamide]: 1000 to 10000 nM.
Still for that read-out and setting: next, `CC(C)(C(=O)Nc1ccc(-c2cccnc2)cc1OC(F)(F)F)c1csc(NS(=O)(=O)C2CC2)n1` [T40, 2-(2-(cyclopropanesulfonamido)thiazol-4-yl)-2-methyl-N-(4-(pyridin-3-yl)-2-(trifluoromethoxy)phenyl)propanamide]: below 100 nM; `CN(C(=O)Cc1csc(NS(=O)(=O)C2CC2)n1)c1ccc(-c2cccnc2)cc1` [T26, 2-(2-(cyclopropanesulfonamido)thiazol-4-yl)-N-methyl-N-(4-(pyridin-3-yl)phenyl)acetamide]: 100 to 1000 nM; `CC(C)(C(=O)Nc1ccc(-c2cncc(C(F)(F)F)n2)cc1)c1csc(NS(=O)(=O)C2(C)CC2)n1` [T302, 2-methyl-2-(2-((1-methylcyclopropane)-1-sulfonamido)thiazol-4-yl)-N-(4-(6-(trifluoromethyl)pyrazin-2-yl)phenyl)propanamide]: 100 to 1000 nM.
With `CC(C)(C(=O)Nc1ccc(-c2cccnc2)cc1)c1csc(NS(=O)(=O)C2CCC2)n1` [T306, 2-(2-(cyclobutanesulfonamido)thiazol-4-yl)-2-methyl-N-(4-(pyridin-3-yl)phenyl)propanamide], under setting [1], the IC50 fell in the range of 100 to 1000 nM.
For the compound `Cc1cc(-c2cncc(Cl)c2)cc(C)c1NC(=O)C(C)(C)c1csc(NS(=O)(=O)C2CC2)n1` [T321, N-(4-(5-chloropyridin-3-yl)-2,6-dimethylphenyl)-2-(2-(cyclopropanesulfonamido)thiazol-4-yl)-2-methylpropanamide], the IC50 under setting [1] was below 100 nM.
Same read-out and setting: next, `CC(C)(C(=O)Nc1ccc(-c2cncc(Cl)c2)cn1)c1csc(NS(=O)(=O)C2CC2)n1` [T225, N-(5′-chloro-[3,3′-bipyridin]-6-yl)-2-(2-(cyclopropanesulfonamido)thiazol-4-yl)-2-methylpropanamide]: below 100 nM.
Regarding `CCOc1cncc(-c2ccc(NC(=O)C3(c4ccnc(NS(=O)(=O)C5CC5)n4)CCC(N)CC3)nc2)n1` (stereo not drawn) [P304], the IC50 under setting [2] was below 100 nM.

The values are drawn from US20230086703A1, “N-(4-(5-chloropyridin-3-yl)phenyl)-2-(2-(cyclopropanesulfonamido)pyrimidin-4-yl) butanamide derivatives and related compounds as human CTPS1 inhibitors for the treatment of proliferative diseases” (Step Pharma S.A.S., priority 2019, published 2023).
